Test results published in patent US10675366B2, “Imaging tumor glycolysis by non-invasive measurement of pyruvate kinase M2” (The Board of Trustees of the Leland Stanford Junior …, priority 2016, dated 2020).

Tests used:
HeLa cells = assay: Cell uptake of [18F]DASA-23 in HeLa cells; assay type: cell-based, human
Experimental: Cell Uptake Studies: HeLa cells (0.5×106) were plated into 6-well plates overnight before [^18F]DASA-23 uptake analysis. On the day of the experiment, fresh, prewarmed DMEM containing 25 μCi of [^18F]DASA-23 was added to individual wells (1 ml per well). Cells were incubated with [^18F]DASA-23 at 37° C. and 5% CO2 over a 60 min time course. […] At the specified time points, incubation plates were put on ice, washed with ice-cold phosphate-buffered saline (PBS) (3×500 μl), and lysed in radioimmunoprecipitation assay buffer (Thermo Fisher Scientific Inc.; 500 μl). A portion of the cell lysates (200 μl) were used to determine the amount of decay-corrected radioactivity on a gamma counter (Cobra II Auto-Gamma Counter; Packard Biosciences Co.). The remaining cell lysate was used post radioactive decay for determination of protein concentration using a bicinchoninic acid (BCA) assay (Thermo Fisher Scientific Inc.). Additionally, 10 μl standards from the solution of [^18F]DASA-23 in DMEM (25 μCi/mi) were counted to quantitate the percentage of radiotracer uptake. For efflux studies, HeLa cells were incubated with [^18F]DASA-23 for 60 min and then washed with room temperature Hanks' buffered salt solution (3×500 μl); a subsequent incubation was then completed at 37° C. in fresh, prewarmed radiotracer-free DMEM. At the specified times, samples were processed as described above.

PKM2 = PKM2 (Homo sapiens, UniProt P14618); settings: cited from earlier work; for AC50: read-out: AC50 (PKM2 activation); for selectivity for PKM2 versus other pyruvate kinase isozymes: versus PKM1, PKR and PKL
[1] = test system: orthotopic U87 GBM tumors; assay: PET/CT/MR imaging and ex vivo autoradiography of mice bearing orthotopic U87 tumors; assay type: in vivo, mouse
Experimental: FIG. 10 illustrates non-invasive imaging of mice bearing orthotopic U87 tumor showing representative T2-weighted MR image and fused PET/CT/MR (10 to 30 min summed activity) of a mouse head bearing an orthotopically grown U87 tumor, white arrows indicate the tumor.
FIG. 11 illustrates non-invasive imaging of mice bearing orthotopic U87 tumor showing an ex vivo autoradiography of coronal mouse brain sections.
FIG. 12B illustrates non-invasive imaging of mice bearing orthotopic U87 tumor showing orthotopic U87 tumor and corresponding contralateral normal brain TAC taken from dynamic [^18F]DASA-23 PET/CT images. Data are means±SD (n=6 animals), ***p<0.001.
PET/MR co-registration confirmed precise correspondence of the [^18F]DASA-23 signal with the location of the intracranial tumors, further confirmed ex vivo by autoradiography.

[2] = In vitro serum stability, mouse serum; assay type: in vitro ADME; settings: up to 120 min
Experimental: (§1) In Vitro Serum Stability Studies: Human and mouse serum (Sigma-Aldrich) were centrifuged at 4° C., with speed of 13,000 rpm for 10 min. Formulated [^18F]DASA-23 (130-150 μCi, 20 μl volume) was added to 330 μl of supernatant. For control, the same volume of radiolabeled compound in 330 μl PBS was used. After vortexing the radiolabeled mixtures, 70 μl aliquots were incubated at 37° C. At predetermined time points (0, 15, 30, 60, and 120 min), 140 μl of ice-cold acetonitrile was added to corresponding samples to stop metabolism. After vortexing and centrifuging samples (10 min, 13,000 rpm), the supernatants were analyzed by analytical HPLC using the same conditions described above.

[3] = In vitro serum stability, human serum; assay type: in vitro ADME; settings: up to 120 min
Experimental: as §1

[4] = test system: orthotopically growing human glioblastoma; settings: mouse models; cited from earlier work

PKM2, sequence (P14618 whole entry, species assumed): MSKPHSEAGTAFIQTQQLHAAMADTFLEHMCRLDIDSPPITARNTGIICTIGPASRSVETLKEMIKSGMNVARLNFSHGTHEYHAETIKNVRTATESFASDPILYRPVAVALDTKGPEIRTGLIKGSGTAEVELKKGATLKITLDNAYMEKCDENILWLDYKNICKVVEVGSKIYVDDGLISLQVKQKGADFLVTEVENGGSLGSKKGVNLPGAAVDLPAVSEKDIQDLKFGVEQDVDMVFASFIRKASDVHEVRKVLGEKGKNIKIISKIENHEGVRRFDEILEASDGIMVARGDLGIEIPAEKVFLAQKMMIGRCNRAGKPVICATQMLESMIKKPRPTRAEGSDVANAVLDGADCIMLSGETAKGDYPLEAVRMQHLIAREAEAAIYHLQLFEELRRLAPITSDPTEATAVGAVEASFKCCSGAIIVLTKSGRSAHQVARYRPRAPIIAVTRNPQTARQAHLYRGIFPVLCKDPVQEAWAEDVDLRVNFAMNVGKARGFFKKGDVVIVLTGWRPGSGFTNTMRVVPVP

Structure (SMILES)	cell uptake (HeLa cells; 30 min)	cell uptake (HeLa cells; 60 min)	AC50 (PKM2) [µM]	selectivity for PKM2 versus other pyruvate kinase isozymes (PKM2)	tumor delineation by dynamic PET imaging ([1]; orthotopic U87 GBM tumors vs surrounding normal brain, n=6 mice)	tumor uptake in blocking study (autoradiography) ([1]; pre-treatment with TEPP-46 (50 mg/kg) 60 min prior to tracer)	percentage of intact tracer ([2]; 37° C.) [%]	serum stability [2]	percentage of intact tracer ([3]; 37° C.) [%]	serum stability [3]	detection of PKM2-expressing tumor in vivo [4]
COc1ccc(S(=O)(=O)N2CCN(S(=O)(=O)c3c(F)cccc3[18F])CC2)cc1 [[^18F]DASA-23, 1-((2-Fluoro-6-(Fluoro-^18F)Phenyl)Sulfonyl)-4-((4-Methoxyphenyl)Sulfonyl)Piperazine]	11.4±2.2 % of total tracer/mg protein	21.0±2.0 % of total tracer/mg protein	0.09	selective activation of PKM2	clearly delineated from the surrounding normal brain tissue	dramatic reduction in tumor uptake	95.8	stable	95.7	stable	
COc1ccc(S(=O)(=O)N2CCN(S(=O)(=O)c3c(F)cccc3F)CC2)cc1 [DASA-23, reference compound]			0.09	selectivity for PKM2 relative to other PK enzymes							
[11CH3]Oc1ccc(S(=O)(=O)N2CCN(S(=O)(=O)c3c(F)cccc3F)CC2)cc1 [[^11C]DASA-23]											successfully detected orthotopically growing human glioblastoma
